Results as given in patent US20260297060A1, “COMPOUNDS FOR THE DEGRADATION OF MUTANT BRAF” (C4 THERAPEUTICS, INC., priority 2023, published 2026).

System: A375 human melanoma xenografts
Assay: In vivo therapeutic efficacy in A375 human melanoma xenografts (tumor volume, T/C, TGI), Example 14
Set-up: species or system human tumor in female BALB/c nude mice
Conditions: for Tumor volume: mean ± SEM; for T/C / TGI: PG-D21
Experimental: Agents were tested in the A375 human melanoma xenografts. Compound 26 and Compound 141 were administered to BALB/c nude mice bearing A375 tumors from PG-DO and dosed via PO twice a day (BID) or third a day (TIP) or dosed P daily (QD) from PG-D. Dabrafenib was administered to BALB/c nude mice bearing A375 tumors from PG-D1 and dosed via P daily (QD). Compound 26 was dosed at 1.5 mg/kg (QD), 2 mg/kg (TID), 3 mg/kg (BID), 6 mg/kg (QD) and 10 mg/kg (BID) for 21 days. Compound 141 was dosed at 0.75 mg/kg (BID), 1 mg/kg (TID), 1.5 mg/kg (BID), 3 mg/kg (QD) and 5 mg/kg (BID) for 21 days. Dabrafenib was dosed at 100 mg/kg for 21 days. This study was non-GLP.
One hundred and thirty-eight female BALB/c nude Mus Musculus mice procured from Shanghai Lingchang Biological Science and Technology Co., LTD between the ages of six to eight weeks and with body weight between eighteen and twenty-two grams were used for the study. A spare mouse was also procured.
The A375 tumor cells were maintained in vitro in DMEM medium supplemented with 10% fetal bovine serum and 1% Penicillin-Streptomycin at 37° C. in an atmosphere of 5% CO2 in air. The tumor cells were routinely sub-cultured twice weekly. The cells growing in an exponential growth phase were harvested and counted for tumor inoculation.
Each mouse was inoculated subcutaneously at the right flank with A375 cells (5×10^6) in 0.2 mL of PBS supplemented with Matrigel (PBS: Matrigel=1:1) for tumor development. Animals were grouped for efficacy study on day 15 after tumor inoculation when the average tumor volume reached 220 mm^3. The test articles administration and the animal numbers in each group are shown in the above experimental Table 75.
At the time of routine monitoring, the animals were checked daily for any effects of tumor growth and treatments on normal behavior such as mobility, food and water consumption (by looking only), body weight gain/loss (body weights were measured twice weekly), eye/hair matting and any other abnormal effect as stated in the protocol. Death and observed clinical signs were recorded on the basis of the numbers of animals within each subset.
Prior to the onset of drug treatment, mice were measured for tumor size in two dimensions using a caliper, and the tumor volume (mm^3) was calculated using formula V=0.5 a×b^2 where a and b are the long and short diameters of the tumor in mm, respectively. Mice were randomized into different treatment groups based on the tumor volume.
The major endpoint was to see if the tumor growth could be delayed or mice could be cured. The tumor size was then used for calculations of T/C value. The T/C value (in percent) is an indication of antitumor effectiveness; T and C are the mean volumes of the treated and control groups, respectively on specified day.
TGI was calculated for each group using the formula: TGI (%)=[1−(Ti−T0)/(Ci−C0)]×100; Ti is the average tumor volume of a treatment group on a given day, T0 is the average tumor volume of the treatment group on the day of treatment start, Ci is the average tumor volume of the vehicle control group on the same day with Ti, and C0 is the average tumor volume of the vehicle group on the day of treatment start.
A one-way ANOVA followed by Dunnett's multiple comparison test was performed to compare tumor volume among vehicle group (Group 1) and treatment groups (Group 2-Group 12). All data were analyzed using GraphPad Prism, ns indicates p>0.05, * indicates p<0.05, ** indicates p<0.01, *** indicates p<0.001 and **** indicates p<0.0001.
Tumor growth inhibition of Compound 26, Compound 141 and dabrafenib in the treatment of female BALB/c nude mice bearing A375 xenografts was calculated based on tumor volume measured on […]. TGI and T/C were calculated respectively and the data are detailed in Table 82.

CCN(C)S(=O)(=O)Nc1ccc(F)c(Oc2ccc3ncn(C4CC5(CCN(C6CC7(C6)CN(c6cc8c(cc6F)c(N6CCC(=O)NC6=O)nn8C)C7)CC5)C4)c(=O)c3c2)c1C#N (centres unmarked) [Compound 141, 6-[2-cyano-3-[[ethyl(methyl)sulfamoyl]amino]-6-fluoro-phenoxy]-3-[7-[2-[3-(2,4-dioxohexahydropyrimidin-1-yl)-5-fluoro-1-methyl-indazol-6-yl]-2-azaspiro[3.3]heptan-6-yl]-7-azaspiro[3.5]nonan-2-yl]-4-oxo-quinazoline]
Tumor volume (0.75 mg/kg p.o. BID x 21 days, day 0): 220 ± 16 mm^3 | Tumor volume (0.75 mg/kg p.o. BID x 21 days, day 4): 279 ± 20 mm^3 | Tumor volume (0.75 mg/kg p.o. BID x 21 days, day 7): 299 ± 25 mm^3 | Tumor volume (0.75 mg/kg p.o. BID x 21 days, day 11): 305 ± 27 mm^3 | Tumor volume (0.75 mg/kg p.o. BID x 21 days, day 14): 333 ± 29 mm^3 | Tumor volume (0.75 mg/kg p.o. BID x 21 days, day 18): 465 ± 48 mm^3 | Tumor volume (0.75 mg/kg p.o. BID x 21 days, day 21): 634 ± 67 mm^3 | Tumor volume (0.75 mg/kg p.o. BID x 21 days, day 25 (dosing-free regrowth)): 1230 ± 98 mm^3 | Tumor volume (0.75 mg/kg p.o. BID x 21 days, day 28 (dosing-free regrowth)): 1536 ± 103 mm^3 | Tumor volume (0.75 mg/kg p.o. BID x 21 days, day 32 (dosing-free regrowth)): 1821 ± 140 mm^3 | Tumor volume (0.75 mg/kg p.o. BID x 21 days, day 35 (dosing-free regrowth)): 2230 ± 178 mm^3 | Tumor volume (0.75 mg/kg p.o. BID x 21 days, day 39 (dosing-free regrowth)): 2413 ± 86 mm^3 | Tumor volume (0.75 mg/kg p.o. BID x 21 days, day 42 (dosing-free regrowth)): 2786 ± 127 mm^3 | Tumor volume (0.75 mg/kg p.o. BID x 21 days, day 46 (dosing-free regrowth)): 3213 ± 101 mm^3 | Tumor Size on PG-D21 (Mean ± SEM) (0.75 mg/kg p.o. BID × 21 days): 634 ± 67 mm^3 | T/C (0.75 mg/kg p.o. BID × 21 days): 33.7% | TGI (0.75 mg/kg p.o. BID × 21 days): 75.1% | Tumor volume (1 mg/kg p.o. TID x 21 days, day 0): 220 ± 16 mm^3 | Tumor volume (1 mg/kg p.o. TID x 21 days, day 4): 199 ± 14 mm^3 | Tumor volume (1 mg/kg p.o. TID x 21 days, day 7): 174 ± 12 mm^3 | Tumor volume (1 mg/kg p.o. TID x 21 days, day 11): 131 ± 11 mm^3 | Tumor volume (1 mg/kg p.o. TID x 21 days, day 14): 99 ± 11 mm^3 | Tumor volume (1 mg/kg p.o. TID x 21 days, day 18): 117 ± 18 mm^3 | Tumor volume (1 mg/kg p.o. TID x 21 days, day 21): 138 ± 22 mm^3 | Tumor volume (1 mg/kg p.o. TID x 21 days, day 25 (dosing-free regrowth)): 303 ± 94 mm^3 | Tumor volume (1 mg/kg p.o. TID x 21 days, day 28 (dosing-free regrowth)): 492 ± 132 mm^3 | Tumor volume (1 mg/kg p.o. TID x 21 days, day 32 (dosing-free regrowth)): 718 ± 197 mm^3 | Tumor volume (1 mg/kg p.o. TID x 21 days, day 35 (dosing-free regrowth)): 933 ± 232 mm^3 | Tumor volume (1 mg/kg p.o. TID x 21 days, day 39 (dosing-free regrowth)): 1233 ± 240 mm^3 | Tumor volume (1 mg/kg p.o. TID x 21 days, day 42 (dosing-free regrowth)): 1591 ± 302 mm^3 | Tumor volume (1 mg/kg p.o. TID x 21 days, day 46 (dosing-free regrowth)): 2017 ± 443 mm^3 | Tumor volume (1 mg/kg p.o. TID x 21 days, day 49 (dosing-free regrowth)): 2117 ± 505 mm^3 | Tumor volume (1 mg/kg p.o. TID x 21 days, day 53 (dosing-free regrowth)): 2166 ± 495 mm^3 | Tumor volume (1 mg/kg p.o. TID x 21 days, day 56 (dosing-free regrowth)): 2162 ± 633 mm^3 | Tumor Size on PG-D21 (Mean ± SEM) (1 mg/kg p.o. TID × 21 days): 138 ± 22 mm^3 | T/C (1 mg/kg p.o. TID × 21 days): 7.3% | TGI (1 mg/kg p.o. TID × 21 days): 104.9% | Tumor volume (1.5 mg/kg p.o. BID x 21 days, day 0): 220 ± 15 mm^3 | Tumor volume (1.5 mg/kg p.o. BID x 21 days, day 4): 245 ± 18 mm^3 | Tumor volume (1.5 mg/kg p.o. BID x 21 days, day 7): 213 ± 17 mm^3 | Tumor volume (1.5 mg/kg p.o. BID x 21 days, day 11): 180 ± 13 mm^3 | Tumor volume (1.5 mg/kg p.o. BID x 21 days, day 14): 159 ± 13 mm^3 | Tumor volume (1.5 mg/kg p.o. BID x 21 days, day 18): 166 ± 14 mm^3 | Tumor volume (1.5 mg/kg p.o. BID x 21 days, day 21): 208 ± 21 mm^3 | Tumor volume (1.5 mg/kg p.o. BID x 21 days, day 25 (dosing-free regrowth)): 476 ± 63 mm^3 | Tumor volume (1.5 mg/kg p.o. BID x 21 days, day 28 (dosing-free regrowth)): 773 ± 76 mm^3 | Tumor volume (1.5 mg/kg p.o. BID x 21 days, day 32 (dosing-free regrowth)): 946 ± 93 mm^3
